Test results reported in PubChem BioAssay AID1918991 (Molecular Pharmacology Branch, DTP, NCI, 2023).

System: 186277-243-T-J2-PDC complex spheroid growth
Assay: Anticancer human tumor 186277-243-T-J2-PDC patient-derived colon adenocarcinoma cell line growth inhibition [AhR]
Details: for IC50: curve of first compound; for viability, T/C: stronger effect = lower value
From the text: Multicellular complex tumor spheroid response to aryl hydrocarbon receptor antagonists in combination with a variety of drugs and investigational agents in selected tumor cell lines
The current study was undertaken to assess response to aryl hydrocarbon receptor antagonists in combination with standard-of-care drugs and investigational agents in solid tumor complex spheroid models. Complex spheroids include a stromal component modeled by human endothelial cells (HUVEC) and fibroblasts modeled by human mesenchymal stem cells (MSCs). The concentration ranges selected for each drug and investigational agent were based upon clinically achievable concentrations if the clinical Cmax of the agent was known.
Compounds. The drugs and investigational agents: BAY 2416964 (NSC825713), GNF351 (NSC835774), CH-223191 (NSC835775), CPI-455 (NSC825282), aza-TdCyd (NSC777586), decitabine (NSC127716), belinostat (NSC758774), entinostat (NSC756642), pevonedistat (NSC761192), tazemetostat (NSC777109), talazoparib (NSC765396), olaparib (NSC753686), selinexor (NSC780203), nedisertib (M3814, NSC802822), bortezomib (NSC756655), venetoclax (NSC766270), doxorubicin (NSC123127), elimusertib (BAY189344, NSC800525), ceralasertib (AZD6738, NSC777638), TAK-243 (NSC785004), alisertib (NSC759677), etoposide (NSC141540), topotecan (NSC609699), eribulin (NSC707389), gemcitabine (NSC613327), carboplatin (NSC241240), cisplatin (NSC119875), and SN-38 (NSC673596) were obtained from the National Cancer Institute (NCI) Developmental Therapeutics Program Chemical Repository (32). The FDA-approved anticancer drug set is available from the Developmental Therapeutics Program at https://dtp.cancer.gov/organization/dscb/obtaining/available plates.htm. […] The stock solutions were prepared in dimethyl sulfoxide (DMSO, Sigma-Aldrich, St. Louis, MO, cat. D2650), except for the platinum compounds which were prepared in saline (Quality Biological, Gaithersburg, MD, cat. 114-055-101), at 800-fold the tested concentration and stored at -70 degrees C prior to their use. All drugs and investigational agents were tested over a range starting from a high concentration at or near the clinical Cmax and decreasing in half-log increments. If the clinical Cmax for an agent had not been determined, the highest concentration tested was 10 microM (Table 1).
Cell Culture. All cells were maintained in an incubator at 37 degrees C and 5% CO2 with 95% humidity. The PDC lines were cultured according to standard operating procedures established by the NCI PDMR (https://pdmr.cancer.gov). Briefly, all PDCs were thawed and cultured in Matrigel-coated flasks prepared with a working solution of 1X Ham's F-12 nutrient mix, without supplementation (Invitrogen, Waltham, MA, cat. 11765054), 100 U/mL penicillin-streptomycin (Invitrogen, cat. 15140122), and 2.5% Matrigel (Corning Inc., Corning, NY, cat. 354248) for the first three passages. All PDCs were cultured in complete DMEM/F-12 media containing advanced DMEM/F-12 (Invitrogen, cat. 12634028), 4.9% defined fetal bovine serum, heat inactivated (HyClone Laboratories Inc., Logan, UT, cat. SH30070.03HI), 389 ng/mL hydrocortisone (Sigma-Aldrich, cat. H4001), 9.7 ng/mL human EGF recombinant protein (Invitrogen, cat. PHG0313), 23.4 microg/mL adenine (Sigma-Aldrich, cat. A2786), 97.3 U/mL penicillin-streptomycin (Invitrogen, cat. 15140122), 1.9 mM L-glutamine (Invitrogen, cat. 25030081), and 9.7 microM Y-27632 dihydrochloride (Tocris Bioscience, Bristol, United Kingdom, cat. 1254). The PDCs were cultured in complete DMEM/F12 media without 10 microM Y-27632 dihydrochloride for at least two passages prior to the screen. The established cell lines NCI-H1341 and […] were cultured in DMEM/F-12, HEPES (Invitrogen, cat. 11330032), 5% defined fetal bovine serum (HyClone Laboratories Inc., cat. SH30070.03), ITS premix universal culture supplement [insulin (5 microg/mL), transferrin (5 microg/mL), and selenious acid (5 ng/mL)] […]
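Also: spheroids exposed to compounds for seven days before the viability read.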
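For viability, T/C in this document: luminescent signal used as a stand-in for viable cell amount; 100% = DMSO vehicle control wells.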

Structure (SMILES): CCc1c2c(nc3ccc(O)cc13)-c1cc3c(c(=O)n1C2)COC(=O)[C@]3(O)CC + CC(CO)NC(=O)c1cc(-c2ccc(Cl)cc2)nn(-c2cnn(C)c2)c1=O
- IC50 (second compound 0.1 µM): < 0.000949 µM
- IC50 (second compound 0.316 µM): < 0.000949 µM
- IC50 (second compound 1 µM): < 0.000949 µM
- IC50 (second compound 3.16 µM): < 0.000949 µM
- IC50 (second compound 10 µM): < 0.000949 µM
- viability, T/C (second compound 0.1 µM, first compound 0.000949 µM): 38.7%
- viability, T/C (second compound 0.1 µM, first compound 0.003 µM): 30.1%
- viability, T/C (second compound 0.1 µM, first compound 0.00949 µM): 22.8%
- viability, T/C (second compound 0.1 µM, first compound 0.03 µM): 16.7%
- viability, T/C (second compound 0.1 µM, first compound 0.0949 µM): 10.3%
- viability, T/C (second compound 0.1 µM, first compound 0.3 µM): 6.69%
- viability, T/C (second compound 0.316 µM, first compound 0.000949 µM): 38.5%
- viability, T/C (second compound 0.316 µM, first compound 0.003 µM): 27.1%
- viability, T/C (second compound 0.316 µM, first compound 0.00949 µM): 21.9%
- viability, T/C (second compound 0.316 µM, first compound 0.03 µM): 15.6%
- viability, T/C (second compound 0.316 µM, first compound 0.0949 µM): 8.35%
- viability, T/C (second compound 0.316 µM, first compound 0.3 µM): 5.97%
- viability, T/C (second compound 1 µM, first compound 0.000949 µM): 37.8%
- viability, T/C (second compound 1 µM, first compound 0.003 µM): 28.9%
- viability, T/C (second compound 1 µM, first compound 0.00949 µM): 24.8%
- viability, T/C (second compound 1 µM, first compound 0.03 µM): 16.4%
- viability, T/C (second compound 1 µM, first compound 0.0949 µM): 8.38%
- viability, T/C (second compound 1 µM, first compound 0.3 µM): 6.06%
- viability, T/C (second compound 3.16 µM, first compound 0.000949 µM): 31.3%
- viability, T/C (second compound 3.16 µM, first compound 0.003 µM): 25.4%
- viability, T/C (second compound 3.16 µM, first compound 0.00949 µM): 24.5%
- viability, T/C (second compound 3.16 µM, first compound 0.03 µM): 15.3%
- viability, T/C (second compound 3.16 µM, first compound 0.0949 µM): 9.33%
- viability, T/C (second compound 3.16 µM, first compound 0.3 µM): 6.42%
- viability, T/C (second compound 10 µM, first compound 0.000949 µM): 27.5%
- viability, T/C (second compound 10 µM, first compound 0.003 µM): 25.6%
- viability, T/C (second compound 10 µM, first compound 0.00949 µM): 22.6%
- viability, T/C (second compound 10 µM, first compound 0.03 µM): 15.4%
- viability, T/C (second compound 10 µM, first compound 0.0949 µM): 8.39%
- viability, T/C (second compound 10 µM, first compound 0.3 µM): 6.77%

Structure (SMILES): O=C(c1cc(Cc2n[nH]c(=O)c3ccccc23)ccc1F)N1CCN(C(=O)C2CC2)CC1 + CC(CO)NC(=O)c1cc(-c2ccc(Cl)cc2)nn(-c2cnn(C)c2)c1=O
- IC50 (second compound 0.1 µM): 6.18 µM
- IC50 (second compound 0.316 µM): 6.46 µM
- IC50 (second compound 1 µM): 8.51 µM
- IC50 (second compound 3.16 µM): 7.34 µM
- IC50 (second compound 10 µM): 4.64 µM
- viability, T/C (second compound 0.1 µM, first compound 0.0316 µM): 99.2%
- viability, T/C (second compound 0.1 µM, first compound 0.1 µM): 108%
- viability, T/C (second compound 0.1 µM, first compound 0.316 µM): 102%
- viability, T/C (second compound 0.1 µM, first compound 1 µM): 90.3%
- viability, T/C (second compound 0.1 µM, first compound 3.16 µM): 69.9%
- viability, T/C (second compound 0.1 µM, first compound 10 µM): 36.1%
- viability, T/C (second compound 0.316 µM, first compound 0.0316 µM): 96.3%
- viability, T/C (second compound 0.316 µM, first compound 0.1 µM): 97.2%
- viability, T/C (second compound 0.316 µM, first compound 0.316 µM): 100%
- viability, T/C (second compound 0.316 µM, first compound 1 µM): 88.5%
- viability, T/C (second compound 0.316 µM, first compound 3.16 µM): 74.9%
- viability, T/C (second compound 0.316 µM, first compound 10 µM): 35.1%
- viability, T/C (second compound 1 µM, first compound 0.0316 µM): 104%
- viability, T/C (second compound 1 µM, first compound 0.1 µM): 95.3%
- viability, T/C (second compound 1 µM, first compound 0.316 µM): 98%
- viability, T/C (second compound 1 µM, first compound 1 µM): 93.7%
- viability, T/C (second compound 1 µM, first compound 3.16 µM): 71.6%
- viability, T/C (second compound 1 µM, first compound 10 µM): 46.5%
- viability, T/C (second compound 3.16 µM, first compound 0.0316 µM): 98.1%
- viability, T/C (second compound 3.16 µM, first compound 0.1 µM): 93.2%
- viability, T/C (second compound 3.16 µM, first compound 0.316 µM): 87.9%
- viability, T/C (second compound 3.16 µM, first compound 1 µM): 90.9%
- viability, T/C (second compound 3.16 µM, first compound 3.16 µM): 71.9%
- viability, T/C (second compound 3.16 µM, first compound 10 µM): 41.7%
- viability, T/C (second compound 10 µM, first compound 0.0316 µM): 80%
- viability, T/C (second compound 10 µM, first compound 0.1 µM): 86.3%
- viability, T/C (second compound 10 µM, first compound 0.316 µM): 88.5%
- viability, T/C (second compound 10 µM, first compound 1 µM): 69.2%
- viability, T/C (second compound 10 µM, first compound 3.16 µM): 58.4%
- viability, T/C (second compound 10 µM, first compound 10 µM): 36.5%
